According to patent US12312329B2, “Aminopyrimidine compound used for inhibiting activity of protein kinase” (Shenzhen TargetRx, Inc., priority 2018, dated 2025):
Where two headings read alike, the source gives them in different places.

Experiments:
[1] = test system: lung cancer cell HCC827 (Del19); assay: Cytotoxicity assay (MTS cell viability), HCC827; format: cell-based; details: Homo sapiens, 72 hours
Procedure: (§1) In vitro anti-proliferation activity of the compound of the present disclosure on three tumor cell lines cultured in vitro was detected by the MTS method.
(§2) Cell lines: skin cancer cell A431 (purchased from the American Type Culture Collection (ATCC)); lung cancer cell NCI-H1975 (purchased from the American Type Culture Collection (ATCC)) and HCC827 (purchased from the American Type Culture Collection (ATCC)); all were cultured with RPM11640 medium containing 10% fetal bovine serum, 100 U/ml penicillin, and […] streptomycin.
(§3) Reagents and materials: RPMI-1640 (GIBCO, Cat. No A10491-01); fetal bovine serum (GIBCO, Cat. No 10099141): 0.25% trypsin-EDTA (GIBCO, Cat. No 25200); penicillin-streptomycin; liquid (GIBCO, Cat. No 15140-122); DMSO (Sigma, Cat. No D2650); MTS Assay Kit (Promega, Cat. No G3581), 96-well plate (Corning, Cat. No 3365).
(§4) Formulation of compound: The test compound was dissolved in DMSO to prepare a 20 mM stock solution, which was stored at −20° C. The stock solution was then serially diluted 3-fold in DMSO to obtain ten concentrations. After the compound was added, a 4-fold dilution was performed with cell culture medium.
(§5) MTS cell viability assay: cells in logarithmic growth phase was digested with 0.25% trypsin-EDTA, and 150 μl of the cells was inoculated in a 96-well plate at an optimized density. After 24 hours, the compound diluted 4 fold in the medium was added, 50 μl/well (generally ten concentrations were selected: 100, 33.3, 11.1, 3.70, 1.23, 0.412, 0.137, 0.0457, 0.0152, 0.00508 μM). The same volume of 0.5% DMSO was added in wells as a control. After the cells were cultured for another 72 hours, the cell viability was detected by MTS.
(§6) Specific procedure: The cells were adhered. The medium was discarded. A mixture containing 20 μL MTS and 100 μl medium was added to each well. After incubating for 1-4 hours in an incubator, OD490 was detected, with the OD650 value as a reference. A dose-effect curve was made using GraphPad Prism software and IC50 was calculated.

WT EGFR = WT EGFR (Homo sapiens (Human), UniProt P00533); assay: Kinase inhibition assay (HTRF Kinase TK), WT EGFR; format: biochemical
From the text: (§7) WT EGFR (Carna, Cat. No 08-115), EGFR[L858R] (Carna, Cat. No 08-502), EGFR[L858R/T790M] (Carna, Cat. No 08-510), ATP (Sigma, Cat. No A7699-1G), DMSO (Sigma, Cat. No D2650), 96-well plate (Corning, Cat. No 3365), 384-well plate (Greiner, Cat. No 784076). HTRF Kinase TK Kit (Cisbio. Cat. No 62TK0PEJ), erlotinib (Selleckchem, Cat. No S7787), EGFR[d746-750] (Life Technologies, Cat. No PV6178), 5× kinase buffer A (Life Technologies, Cat. No PV3186), kinase tracer 199 (Life Technologies, Cat. No PV5830), LanthaScreen® Eu-anti-GST antibody (Life Technologies, Cat. No PV5594).
(§8) Formulation of compound: The test compound was dissolved in DMSO to prepare a 20 mM stock solution. The stock solution was then serially diluted 3-fold in DMSO to obtain ten concentrations. After the compound was added, a 10-fold dilution was performed with buffer.
(§9) WT EGFR and EGFR[L858R/T790M] kinase detection: In 5× kinase buffer A, WT EGFR or EGFR[L858R/T790M] kinase was mixed with different concentrations of compounds prepared by pre-dilution for 10 minutes. Each concentration was tested in duplicate. The corresponding substrate and ATP were added, and reaction was performed at room temperature for 20 minutes (negative and positive controls were provided: the negative control was a blank control, and the positive control was erlotinib). After completion of the reaction, detection reagents (reagents in the HTRF Kinase TK kit) were added. After incubating for 30 minutes at room temperature, enzyme activity in the presence of various concentrations of the compounds of the present disclosure was determined by Evnvision microplate reader, and inhibitory activity of different concentrations of the compounds on enzyme activity was calculated. The inhibitory activity of different concentrations of the compounds on enzyme activity was then fitted by Graphpad 5.0 software according to the four-parameter equation, and the IC50 value was calculated.

[2] = Pharmacokinetic assay in rats; format: in vivo, Sprague-Dawley rats; details: rat; for AUC(0-t) / Cmax / Tmax / half-life / AUC(0-inf) / MRT inf / bioavailability: male, Sprague-Dawley, plasma; for AUC(0-inf): read-out: AUCINF_pred; for MRT inf: read-out: MRTINF_pred; for bioavailability: PO 10 mg/kg vs IV 0.5 mg/kg
Procedure: Six male Sprague-Dawley rats (7-8 weeks old, and weighing about 210 g) were divided into 2 groups, 3 rats in each group. A single dose of compounds (10 mg/kg orally) was administered intravenously or orally to compare their pharmacokinetics.
The rats were fed with standard feed and water. Fasting was started 16 hours before the assay. The drug was dissolved in PEG400 and dimethyl sulfoxide. Blood was collected from the orbit. The time points for blood collection were 0.083 hours, 0.25 hours, 0.5 hours, 1 hour, 2 hours, 4 hours, 6 hours, 8 hours, 12 hours and 24 hours after administration.
The rats were briefly anesthetized after inhaling diethyl ether, and 300 μL of blood sample was collected from the orbit into a test tube containing 30 μL of 1% heparin salt solution. Before use, the test tube was oven dried overnight at 60° C. After the blood sample was collected at the last time point, the rats were anesthetized with diethyl ether and then sacrificed.
Immediately after the blood sample was collected, the test tube was gently inverted at least 5 times to ensure sufficient mixing, and then placed on ice. The blood sample was centrifuged at 5000 rpm at 4° C. for 5 minutes to separate the plasma from the red blood cells. 100 μL of plasma was aspirated into a clean plastic centrifuge tube with a pipette, and the name of the compound and time point were marked. The plasma was stored at −80° C. before analysis. The concentration of the compound of the present disclosure in plasma was determined by LC-MS/MS. The pharmacokinetic parameters were calculated based on the blood drug concentration of each animal at different time points.

EGFR[L858R/T790M] = EGFR[L858R/T790M] (Homo sapiens (Human), UniProt P00533, L858R/T790M); assay: Kinase inhibition assay (HTRF Kinase TK), EGFR[L858R/T790M]; format: biochemical
From the text: as §7, §8, §9

[3] = test system: lung cancer cell NCI-H1975 (L858R/T790M); assay: Cytotoxicity assay (MTS cell viability), NCI-H1975; format: cell-based; details: Homo sapiens, 72 hours
Procedure: as §1, §2, §3, §4, §5, §6

skin cancer cell A431 = assay: Cytotoxicity assay (MTS cell viability), A431; format: cell-based; details: Homo sapiens, A-431, 72 hours
Procedure: as §1, §2, §3, §4, §5, §6

Sequence of EGFR[L858R/T790M] (P00533 25-1210 T790M/L858R): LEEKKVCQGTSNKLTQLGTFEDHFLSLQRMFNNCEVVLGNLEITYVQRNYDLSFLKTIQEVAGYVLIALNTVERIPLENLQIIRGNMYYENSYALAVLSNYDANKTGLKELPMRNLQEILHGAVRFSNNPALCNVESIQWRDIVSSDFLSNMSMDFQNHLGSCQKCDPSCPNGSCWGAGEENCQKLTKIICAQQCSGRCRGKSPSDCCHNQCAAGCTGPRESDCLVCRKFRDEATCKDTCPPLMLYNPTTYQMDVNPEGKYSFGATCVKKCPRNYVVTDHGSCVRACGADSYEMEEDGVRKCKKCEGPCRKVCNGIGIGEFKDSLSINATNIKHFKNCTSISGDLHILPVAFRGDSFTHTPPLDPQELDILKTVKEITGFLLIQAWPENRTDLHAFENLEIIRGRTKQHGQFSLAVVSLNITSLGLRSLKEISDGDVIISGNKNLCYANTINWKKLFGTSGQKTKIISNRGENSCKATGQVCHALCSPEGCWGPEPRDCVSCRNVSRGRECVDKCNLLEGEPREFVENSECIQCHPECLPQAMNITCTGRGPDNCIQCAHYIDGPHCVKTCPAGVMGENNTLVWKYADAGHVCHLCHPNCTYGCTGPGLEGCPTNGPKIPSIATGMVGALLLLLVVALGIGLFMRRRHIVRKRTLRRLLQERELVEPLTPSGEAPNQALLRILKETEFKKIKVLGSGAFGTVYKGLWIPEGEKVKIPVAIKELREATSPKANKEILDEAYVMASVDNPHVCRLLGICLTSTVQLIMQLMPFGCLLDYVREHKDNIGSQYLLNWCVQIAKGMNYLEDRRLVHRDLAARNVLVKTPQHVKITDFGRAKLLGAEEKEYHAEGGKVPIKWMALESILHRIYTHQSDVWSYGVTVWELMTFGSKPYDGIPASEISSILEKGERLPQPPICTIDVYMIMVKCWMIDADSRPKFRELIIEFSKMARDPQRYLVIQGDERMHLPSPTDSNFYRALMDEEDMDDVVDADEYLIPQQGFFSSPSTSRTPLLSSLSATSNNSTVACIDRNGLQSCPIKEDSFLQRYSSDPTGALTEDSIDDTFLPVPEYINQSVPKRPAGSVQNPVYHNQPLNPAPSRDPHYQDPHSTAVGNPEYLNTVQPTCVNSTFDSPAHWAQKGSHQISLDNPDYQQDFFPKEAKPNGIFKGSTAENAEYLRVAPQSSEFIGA
Sequence of WT EGFR (P00533 25-1210): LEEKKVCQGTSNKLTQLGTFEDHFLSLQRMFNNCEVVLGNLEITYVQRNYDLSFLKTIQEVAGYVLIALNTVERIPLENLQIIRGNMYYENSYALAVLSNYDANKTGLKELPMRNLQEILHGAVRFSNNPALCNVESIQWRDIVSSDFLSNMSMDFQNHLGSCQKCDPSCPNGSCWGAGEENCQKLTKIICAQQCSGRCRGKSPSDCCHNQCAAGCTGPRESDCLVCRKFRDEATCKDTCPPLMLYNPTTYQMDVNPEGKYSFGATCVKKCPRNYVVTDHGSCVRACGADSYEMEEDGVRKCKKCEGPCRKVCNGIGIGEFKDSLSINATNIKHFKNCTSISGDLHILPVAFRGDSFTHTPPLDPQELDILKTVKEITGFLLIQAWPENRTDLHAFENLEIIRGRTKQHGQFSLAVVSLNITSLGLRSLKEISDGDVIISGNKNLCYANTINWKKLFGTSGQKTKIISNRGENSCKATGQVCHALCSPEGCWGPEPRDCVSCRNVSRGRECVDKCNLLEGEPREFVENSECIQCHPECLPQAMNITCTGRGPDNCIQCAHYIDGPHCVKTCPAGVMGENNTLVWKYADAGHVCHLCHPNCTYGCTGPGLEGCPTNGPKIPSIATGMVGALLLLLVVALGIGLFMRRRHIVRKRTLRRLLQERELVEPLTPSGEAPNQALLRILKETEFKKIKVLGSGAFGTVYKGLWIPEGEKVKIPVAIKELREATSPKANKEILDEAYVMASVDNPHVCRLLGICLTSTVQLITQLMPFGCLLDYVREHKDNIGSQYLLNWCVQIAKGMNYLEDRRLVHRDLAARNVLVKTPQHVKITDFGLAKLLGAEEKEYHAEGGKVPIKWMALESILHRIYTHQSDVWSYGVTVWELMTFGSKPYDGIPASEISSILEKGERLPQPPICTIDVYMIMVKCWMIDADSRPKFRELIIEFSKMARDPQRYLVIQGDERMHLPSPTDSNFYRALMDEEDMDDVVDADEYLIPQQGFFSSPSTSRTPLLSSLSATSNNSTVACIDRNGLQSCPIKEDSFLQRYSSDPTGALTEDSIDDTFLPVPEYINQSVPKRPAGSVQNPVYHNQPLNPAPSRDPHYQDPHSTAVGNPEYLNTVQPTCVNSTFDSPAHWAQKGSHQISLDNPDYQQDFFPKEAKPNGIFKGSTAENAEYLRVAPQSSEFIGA

SMILES | IC50 [1] | IC50 (WT EGFR) | AUC(0-t) ([2]; IV 0.5 mg/kg) | Cmax ([2]; IV 0.5 mg/kg) | Tmax ([2]; IV 0.5 mg/kg) | half-life ([2]; IV 0.5 mg/kg) | AUC(0-inf) ([2]; IV 0.5 mg/kg) | MRT inf ([2]; IV 0.5 mg/kg) | AUC(0-t) ([2]; PO 10 mg/kg) | Cmax ([2]; PO 10 mg/kg) | Tmax ([2]; PO 10 mg/kg) | half-life ([2]; PO 10 mg/kg) | bioavailability [2] | Cl_pred ([2]; IV 0.5 mg/kg) | Vz_pred ([2]; IV 0.5 mg/kg) | Cl_pred ([2]; PO 10 mg/kg) | Vz_pred ([2]; PO 10 mg/kg) | IC50 (EGFR[L858R/T790M]) | IC50 [3] | IC50 (skin cancer cell A431) | further results
C=CC(=O)Nc1cc(Nc2ncc(F)c(-n3cc(CN(C)C)c(-c4ccccc4)n3)n2)c(OC)nc1N1CCOCC1 [Compound T-2, N-(5-((4-(4-((dimethylamino)methyl)-3-phenyl-1H-pyrazol-1-yl)-5-fluoropyrimidin-2-yl)amino)-6-methoxy-2-morpholinopyridin-3-yl) acrylamide] | 8.25 nM | 3.33 nM | 284 ng·h/mL | 268 ng/mL | 0.08 h | 2.17 h | 289 ng·h/mL | 1.95 h | 753 ng·h/mL | 69.3 ng/mL | 2.33 h | 6.4 h | 25.1% | 29.2 mL/min/kg | 5.49 L/kg | 200.8 mL/min/kg | 111.2 L/kg | 0.44 nM | 9.51 nM | 1410 nM | AUC(0-inf) ([2]; PO 10 mg/kg): 840 ng·h/mL; MRT inf ([2]; PO 10 mg/kg): 7.67 h
C=CC(=O)Nc1cc(Nc2nccc(-n3cc(CN(C)C)c(-c4ccccc4)n3)n2)c(OC)nc1N1CCOCC1 [Compound T-1, N-(5-((4-(4-((dimethylamino)methyl)-3-phenyl-1H-pyrazol-1-yl)pyrimidin-2-yl)amino)-6-methoxy-2-morpholinopyridin-3-yl)acrylamide] | 3.64 nM | 1.29 nM | 328 ng·h/mL | 246 ng/mL | 0.08 h | 2.8 h | 341 ng·h/mL | 2.32 h | 1430 ng·h/mL | 91.1 ng/mL | 5.33 h | 8.69 h | 21.8% | 24.5 mL/min/kg | 5.94 L/kg | 97.5 mL/min/kg | 73.39 L/kg | 0.4 nM | 2.43 nM | 260 nM | AUC(0-inf) ([2]; PO 10 mg/kg): 1790 ng·h/mL; MRT inf ([2]; PO 10 mg/kg): 9.11 h
C=CC(=O)Nc1cc(Nc2nccc(-c3cc(CN(C)C)n(-c4ccccc4)n3)n2)c(OC)cc1N1CCOCC1 [Compound T-7, N-(5-((4-(5-((dimethylamino)methyl)-1-phenyl-1H-pyrazol-3-yl)pyrimidin-2-yl)amino)-4-methoxy-2-morpholinophenyl)acrylamide] | 4.44 nM | 0.55 nM |  |  |  |  |  |  |  |  |  |  |  |  |  |  |  | 1.15 nM | 23.5 nM | 226 nM | 
C=CC(=O)Nc1cc(Nc2nccc(-n3cc(CN(C)C)c(-c4ccccc4)n3)n2)c(OC)cc1N1CCOCC1 [YH25448, reference compound] |  |  |  |  |  |  |  |  |  |  |  |  |  | 17.5 mL/min/kg | 5.73 L/kg | 94.2 mL/min/kg | 61.56 L/kg |  |  |  | 
C=CC(=O)Nc1cc(Nc2ncc(C)c(-n3cc(CN(C)C)c(-c4ccccc4)n3)n2)c(OC)nc1N1CCOCC1 [Compound T-3, N-(5-((4-(4-((dimethylamino)methyl)-3-phenyl-H-pyrazol-1-yl)-5-methylpyrimidin-2-yl)amino)-6-methoxy-2-morpholinopyridin-3-yl)acrylamide] | 12.1 nM | 6.29 nM |  |  |  |  |  |  |  |  |  |  |  |  |  |  |  | 0.6 nM | 21.9 nM | 342 nM | 
C=CC(=O)Nc1cc(Nc2nccc(-n3cc(CN(C)C)c(-c4ccccc4)n3)n2)c(OC(C)C)nc1N1CCOCC1 [Compound T-4, N-(5-((4-(4-((dimethylamino)methyl)-3-phenyl-1H-pyrazol-1-yl)-pyrimidin-2-yl)amino)-6-isopropoxy-2-morpholinopyridin-3-yl)acrylamide] | 5.06 nM | 1.98 nM |  |  |  |  |  |  |  |  |  |  |  |  |  |  |  | 0.81 nM | 13.2 nM | 130 nM | 
